Experimental findings from patent publication EP4154878A1, “APPLICATION OF ACTIVE […] ROOT OF […] OR PHARMACEUTICALLY ACCEPTABLE SALT THEREOF IN PREPARING ANTIVIRAL DRUG” (priority 2020, dated 2021) are described below.

Common to all, as to type: cell-based
One data set relates to SARS-CoV-2. In words: microbe, parasite or virus in culture. To be noted: read-out: half effective concentration EC50 on activity of SARS-CoV-2.
For another data set, the system named is SARS-CoV-2 pseudovirus. Briefly: microbe, parasite or virus in culture. To be noted: Severe acute respiratory syndrome-related coronavirus, 293T/ACE2, 48 h, read-out: half inhibitory concentration IC50 to inhibit entering of the SARS-CoV-2 pseudovirus into a target cell.
The test system of the next data set is cell Vero-E6. In words: Cytotoxicity detection (CCK-8), cell Vero-E6. To be noted: for toxic effect on the cell Vero-E6: 48 hours, CCK-8; for cytotoxicity: within the effective concentration range, cell not named. As for the experimental part: (§1) • 1. Method: • 1) Cell inoculation: Cells Vero-E6 and 293T/ACE2 in a logarithmic growth period were taken, cell densities thereof were adjusted to 1^∗10^4 cells/well, and 100 µL/well thereof were respectively inoculated on a 96-well plate and cultured overnight. • 2) Drug concentration design: Before administration, a drug was diluted to nine concentration gradients with a DMEM medium containing fetal bovine serum of 2% of a total volume twice multiple proportions, and an initial concentration of the drug was set to 200 µM (200, 100, 50, 25, 12.5, 6.25, 3.125, 1.5625, 0.78125 µM), and 100 µL per well of a diluted drug was taken to be added into the cells Vero-E6 and 293T/ACE2 in the 96-well plate in 1), with a final volume of 200 µL per well. Triplicate wells were set for each drug concentration. A DMSO solvent treatment group was used as a blank control. • 3) Absorbance detection: After incubation in an incubator for 48 hours, 10 µL of a CCK-8 working solution was added into each well, and incubation continued to be conducted in the incubator for 3 hours. The absorbance at 450 nm was measured by a microplate reader. • 4) According to measured OD values, survival rates of the cells Vero-E6 and 293T/ACE2 under the action of various concentrations of the drug were calculated respectively compared with the control group. • 2.
(§2) • 1. Method: • 1) Cell inoculation: Cells Vero-E6 and 293T/ACE2 in a logarithmic growth period were taken, cell densities thereof were adjusted to 1^∗10^4 cells/well, and 100 µL/well thereof were respectively inoculated on a 96-well plate and cultured overnight in a 37°C cell incubator. • 2) Drug concentration design: Before administration, a drug was diluted to eight concentration gradients with a DMEM medium containing fetal bovine serum of 2% of a total volume twice multiple proportions. Cell Vero-E6: an initial concentration was set to 200 µM (200, 100, 50, 25, 12.5, 6.25, 3.125, 1.5625 µM), and 100 µL per well of a diluted drug was taken to be added into the cell Vero-E6 in the 96-well plate in 1), with a final volume of 200 µL per well. Triplicate wells were set for each drug concentration. A DMSO solvent treatment group was used as a blank control. Cell 293T/ACE2: an initial concentration was set to 100 µM (100, 50, 25, 12.5, 6.25, 3.125, 1.5625, 0.78125 µM), and 100 µL per well of a diluted drug was taken to be added into the cell 293T/ACE2 in the 96-well plate in 1), with a final volume of 200 µL per well. Triplicate wells were set for each drug concentration. A DMSO solvent treatment group was used as a blank control. • 3) Absorbance detection: After incubation in an incubator for 48 hours, 10 µL of a CCK-8 working solution was added into each well, and incubation continued to be conducted in the incubator for 3 hours. The absorbance at 450 nm was measured by a microplate reader. • 4) According to measured OD values, survival rates of the cells Vero-E6 and 293T/ACE2 under the action of various concentrations of the drug were calculated respectively compared with the control group.
• 1. Method: • 1) Cell inoculation: Cells Vero-E6 and 293T/ACE2 in a logarithmic growth period were taken, cell densities thereof were adjusted to 1^∗10^4 cells/well, and 100 µL/well thereof were respectively inoculated on a 96-well plate and cultured overnight. • 2) Drug concentration design: Before administration, a drug was diluted to nine concentration gradients with a DMEM medium containing fetal bovine serum of 2% of a total volume twice multiple proportions, and an initial concentration was set to 200 µM (200, 100, 50, 25, 12.5, 6.25, 3.125, 1.5625, 0.78125 µM), and 100 µL per well of a diluted drug was taken to be added into the cells Vero-E6 and 293T/ACE2 in the 96-well plate in 1), with a final volume of 200 µL per well. Triplicate wells were set for each drug concentration. […]

The next data set relates to cell 293T/ACE2. In words: Cytotoxicity detection (CCK-8), cell 293T/ACE2. The settings on record: 48 hours. Here is the method: as §1
as §2, with “Cell 293T/ACE2: an initial concentration was set to 100 µM (100, 50, 25, 12.5, 6.25, 3.125, 1.5625, 0.78125 µM), and 100 µL per well of a diluted drug was taken to be added into the cell 293T/ACE2 in the 96-well plate in 1), with a final volume of 200 µL per well. Triplicate wells were set for each drug concentration.” left out, “group. […]” for “group.”

Setting [1] is: Severe acute respiratory syndrome coronavirus 2, Vero C1008, 24 h.
[2] abbreviates: at 200 µM and within an effective concentration range.
The mark [3] stands for this setting: at 100 µM and within an effective concentration range.

Where two headings read alike, the source gives them in different places.

Consider `Cc1cccc2c3c(ccc12)C1=C(C(=O)C3=O)[C@@H](C)CO1` [dihydrotanshinone I], for which, in the data set on SARS-CoV-2 (setting [1]), the EC50 came out at 0.64 µM. Further, the IC50 with SARS-CoV-2 pseudovirus amounted to 0.68 µM. Also, the “toxic effect on the cell Vero-E6” value with cell Vero-E6 (at 10 µM and within an effective concentration range) is given as “no obvious toxic effect”. The cytotoxicity entry in the data set on cell Vero-E6 is reported as “no obvious cytotoxicity”. For the same molecule, in the data set with cell 293T/ACE2 (at 2.5 µM and within an effective concentration range), the “toxic effect on the cell 293T/ACE2” value was “no obvious toxic effect”.

On to `O=C(/C=C/c1ccc(O)c2c1[C@H](C(=O)O[C@H](Cc1ccc(O)c(O)c1)C(=O)O)[C@@H](c1ccc(O)c(O)c1)O2)O[C@H](Cc1ccc(O)c(O)c1)C(=O)O` [salvianolic acid B], for which the EC50 in the data set on SARS-CoV-2 (setting [1]) came to 55.5 µM. Moreover, in the data set with SARS-CoV-2 pseudovirus, the IC50 stood at 0.416 µM. Further, the “toxic effect on the cell Vero-E6” value in the data set with cell Vero-E6 (setting [2]) was “no obvious toxic effect”. Moreover, the cytotoxicity entry in the data set with cell Vero-E6 was “no obvious cytotoxicity”. Besides, the “toxic effect on the cell 293T/ACE2” value with cell 293T/ACE2 (setting [3]) is listed as “no obvious toxic effect”.

Regarding `O=C(O)[C@H](O)Cc1ccc(O)c(O)c1` [salvianic acid A], the EC50 in the data set on SARS-CoV-2 (setting [1]) amounted to 1.07 µM. Also, the IC50 with SARS-CoV-2 pseudovirus was found to be 2.7 µM. The “toxic effect on the cell Vero-E6” value in the data set with cell Vero-E6 (setting [2]) is reported as “no obvious toxic effect”. Moreover, the cytotoxicity result in the data set with cell Vero-E6 is given as “no obvious cytotoxicity”. Also, the “toxic effect on the cell 293T/ACE2” value in the data set with cell 293T/ACE2 (setting [2]) is “no obvious toxic effect”.

For `O=C(/C=C/c1ccc(O)c2oc(-c3ccc(O)c(O)c3)cc12)O[C@H](Cc1ccc(O)c(O)c1)C(=O)O` [salvianolic acid C], the EC50 in the data set on SARS-CoV-2 (setting [1]) stood at 3.41 µM. The IC50 in the data set with SARS-CoV-2 pseudovirus is 5.9 µM. Moreover, in the data set with cell Vero-E6 (setting [2]), the “toxic effect on the cell Vero-E6” value was “no obvious toxic effect”. Further, in the data set on cell Vero-E6, the cytotoxicity entry is given as “no obvious cytotoxicity”. Besides, the “toxic effect on the cell 293T/ACE2” value in the data set with cell 293T/ACE2 (setting [2]) was “no obvious toxic effect”.

With `Cc1coc2c1C(=O)C(=O)c1c-2ccc2c(C)cccc12` [Tanshinone I], the EC50 with SARS-CoV-2 was found to be 2.98 µM. Further, the “toxic effect on the cell Vero-E6” value in the data set with cell Vero-E6 (setting [3]) is “no obvious toxic effect”. Further, the cytotoxicity entry with cell Vero-E6 was “no obvious cytotoxicity”.

On to `C[C@H]1COC2=C1C(=O)C(=O)c1c2ccc2c1CCCC2(C)C` [cryptotanshinone, Cryptotanshinone], for which, in the data set with SARS-CoV-2 (setting [1]), the EC50 was determined as 1.46 µM. For the same molecule, the “toxic effect on the cell Vero-E6” value with cell Vero-E6 (setting [3]) is on record as “no obvious toxic effect”. In the data set on cell Vero-E6, the cytotoxicity entry is recorded as “no obvious cytotoxicity”.
